Measured values: article PMC6979384, “Characterization of the plant homeodomain (PHD) reader family for their histone tail interactions” (Epigenetics & Chromatin, 2020)

Key:
Assay in all cases: Histone peptide microarray
Type in all cases: binding, human
Conditions in all cases: total n = 4
BAZ2B = test system: BAZ2B
Procedure, shortened: (§1)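 Recombinant GST-PHD protein at 0.5 μM; 293-member modified histone peptide array; signals averaged from four repeats ± SD.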

MLL5 = test system: MLL5
Procedure, shortened: as §1

MORC3 (CW) = test system: MORC3 (CW)
Procedure, shortened: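 Binding read as mean relative signal from 4 replicates; microarray held 293 synthetic histone peptides with single or combinatorial PTMs. Each GST-tagged PHD reader was applied at 0.5 μM using the optimized Petell protocol.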

PHF8 = test system: PHF8
Procedure, shortened: as §1

AIRE (PP) = test system: AIRE (PP)
Procedure, shortened: as §1

CHD5 (PPCC) = test system: CHD5 (PPCC)
Procedure, shortened: as §1

PHF13 = test system: PHF13
Procedure, shortened: as §1

ING1 = test system: ING1
Procedure, shortened: as §1

KDM5A (3) = test system: KDM5A (3)
Procedure, shortened: as §1

DIDO1 = test system: DIDO1
Procedure, shortened: as §1

ING5 = test system: ING5
Procedure, shortened: as §1

PHRF1 (RP) = test system: PHRF1 (RP)
Procedure, shortened: as §1

SP140L = test system: SP140L
Procedure, shortened: as §1

KDM5A (1) = test system: KDM5A (1)
Procedure, shortened: as §1

PHF23 = test system: PHF23
Procedure, shortened: as §1

TAF3 = test system: TAF3
Procedure, shortened: as §1

DPF2 (PPC2W2) = test system: DPF2 (PPC2W2)
Procedure, shortened: as §1

PHF21A = test system: PHF21A
Procedure, shortened: as §1

CHD4 (PPCC) = test system: CHD4 (PPCC)
Procedure, shortened: as §1

ING2 = test system: ING2
Procedure, shortened: as §1

RAG2 = test system: RAG2
Procedure, shortened: as §1

KDM7A = test system: KDM7A
Procedure, shortened: as §1

ING4 = test system: ING4
Procedure, shortened: as §1

KDM5B (1) = test system: KDM5B (1)
Procedure, shortened: as §1

ING3 = test system: ING3
Procedure, shortened: as §1

PHF2 = test system: PHF2
Procedure, shortened: as §1

KDM4C (TTP) = test system: KDM4C (TTP)
Procedure, shortened: as §1

BPTF (PB) = test system: BPTF (PB)
Procedure, shortened: as §1

CHD5 (PCC) = test system: CHD5 (PCC)
Procedure, shortened: as §1

KDM5B (3) = test system: KDM5B (3)
Procedure, shortened: as §1

TRIM66 (PB) = test system: TRIM66 (PB)
Procedure, shortened: as §1

[1] = sheet "Array Heatmap", GST-tagged reader, histone peptide array

## H3K18ac: H3 1-20 [Peptide H3K18ac]
BAZ2B; GST-tagged BAZ2B, sheet Array Heatmap, each array performed twice
  Array Heatmap signal (histone peptide microarray): 0.4617
MLL5; GST-tagged MLL5, sheet Array Heatmap, each array performed twice
  Array Heatmap signal (histone peptide microarray): 0.5221
MORC3 (CW); GST-tagged MORC3 (CW = CW-type Zn-finger), sheet Array Heatmap, each array performed twice
  Array Heatmap signal (histone peptide microarray): 0.6663
PHF8; GST-tagged PHF8, sheet Array Heatmap, each array performed twice
  Array Heatmap signal (histone peptide microarray): 0.3469
AIRE (PP); GST-tagged AIRE (PP), sheet Array Heatmap, each array performed twice
  Array Heatmap signal (histone peptide microarray): 0.6319
CHD5 (PPCC); GST-tagged CHD5 (PPCC = Dual PHD + Dual Chromodomain), sheet Array Heatmap, each array performed twice
  Array Heatmap signal (histone peptide microarray): 0.5749
PHF13; GST-tagged PHF13, sheet Array Heatmap, each array performed twice
  Array Heatmap signal (histone peptide microarray): 0.6049
ING1; GST-tagged ING1, sheet Array Heatmap, each array performed twice
  Array Heatmap signal (histone peptide microarray): 0.5131
KDM5A (3); GST-tagged KDM5A (3), sheet Array Heatmap, each array performed twice
  Array Heatmap signal (histone peptide microarray): 0.7024
DIDO1; GST-tagged DIDO1, sheet Array Heatmap, each array performed twice
  Array Heatmap signal (histone peptide microarray): 0.6541
ING5; GST-tagged ING5, sheet Array Heatmap, each array performed twice
  Array Heatmap signal (histone peptide microarray): 0.3604
PHRF1 (RP); GST-tagged PHRF1 (RP), sheet Array Heatmap, each array performed twice
  Array Heatmap signal (histone peptide microarray): 0.9005
SP140L; GST-tagged SP140L, sheet Array Heatmap, each array performed twice
  Array Heatmap signal (histone peptide microarray): 0.3771
KDM5A (1); GST-tagged KDM5A (1), sheet Array Heatmap, each array performed twice
  Array Heatmap signal (histone peptide microarray): 0.495
PHF23; GST-tagged PHF23, sheet Array Heatmap, each array performed twice
  Array Heatmap signal (histone peptide microarray): 0.5309
TAF3; GST-tagged TAF3, sheet Array Heatmap, each array performed twice
  Array Heatmap signal (histone peptide microarray): 0.3122
DPF2 (PPC2W2); GST-tagged DPF2 (PPC2W2 = Dual PHD + C2W2-type Zn-finger), sheet Array Heatmap, each array performed twice
  Array Heatmap signal (histone peptide microarray): 0.8135
PHF21A; GST-tagged PHF21A, sheet Array Heatmap, each array performed twice
  Array Heatmap signal (histone peptide microarray): 0.4738
CHD4 (PPCC); GST-tagged CHD4 (PPCC = Dual PHD + Dual Chromodomain), sheet Array Heatmap, each array performed twice
  Array Heatmap signal (histone peptide microarray): 0.5741
ING2; GST-tagged ING2, sheet Array Heatmap, each array performed twice
  Array Heatmap signal (histone peptide microarray): 0.5886
RAG2; GST-tagged RAG2, sheet Array Heatmap, each array performed twice
  Array Heatmap signal (histone peptide microarray): 0.2722
KDM7A; GST-tagged KDM7A, sheet Array Heatmap, each array performed twice
  Array Heatmap signal (histone peptide microarray): 0.36
ING4; GST-tagged ING4, sheet Array Heatmap, each array performed twice
  Array Heatmap signal (histone peptide microarray): 0.4378
KDM5B (1); GST-tagged KDM5B (1), sheet Array Heatmap, each array performed twice
  Array Heatmap signal (histone peptide microarray): 0.7147
ING3; GST-tagged ING3, sheet Array Heatmap, each array performed twice
  Array Heatmap signal (histone peptide microarray): 0.4594
PHF2; GST-tagged PHF2, sheet Array Heatmap, each array performed twice
  Array Heatmap signal (histone peptide microarray): 0.5028
KDM4C (TTP); GST-tagged KDM4C (TTP = Tandem Tudor domain + PHD), sheet Array Heatmap, each array performed twice
  Array Heatmap signal (histone peptide microarray): 0.5068
BPTF (PB); GST-tagged BPTF (PB = PHD + Bromodomain), sheet Array Heatmap, each array performed twice
  Array Heatmap signal (histone peptide microarray): 0.3398
CHD5 (PCC); GST-tagged CHD5 (PCC = PHD + Dual Chromodomain), sheet Array Heatmap, each array performed twice
  Array Heatmap signal (histone peptide microarray): 0.8176
KDM5B (3); GST-tagged KDM5B (3), sheet Array Heatmap, each array performed twice
  Array Heatmap signal (histone peptide microarray): 0.5801
TRIM66 (PB); GST-tagged TRIM66 (PB = PHD + Bromodomain), sheet Array Heatmap, each array performed twice
  Array Heatmap signal (histone peptide microarray): 0.7719

## H3K18me2: H3 1-20 [Peptide H3K18me2]
BAZ2B; [1]
  Array Heatmap signal, BAZ2B: 0.4823
MLL5; [1]
  Array Heatmap signal, MLL5: 0.5113
MORC3 (CW); [1]
  Array Heatmap signal, MORC3 (CW): 0.432
PHF8; [1]
  Array Heatmap signal, PHF8: 0.3314
AIRE (PP); [1]
  Array Heatmap signal, AIRE (PP): 0.593
CHD5 (PPCC); [1]
  Array Heatmap signal, CHD5 (PPCC): 0.548
PHF13; [1]
  Array Heatmap signal, PHF13: 0.5815
ING1; [1]
  Array Heatmap signal, ING1: 0.5097
KDM5A (3); [1]
  Array Heatmap signal, KDM5A (3): 0.5609
DIDO1; [1]
  Array Heatmap signal, DIDO1: 0.6131
ING5; [1]
  Array Heatmap signal, ING5: 0.3565
PHRF1 (RP); [1]
  Array Heatmap signal, PHRF1 (RP): 0.655
SP140L; [1]
  Array Heatmap signal, SP140L: 0.3547
KDM5A (1); [1]
  Array Heatmap signal, KDM5A (1): 0.4854
PHF23; [1]
  Array Heatmap signal, PHF23: 0.5164
TAF3; [1]
  Array Heatmap signal, TAF3: 0.2642
DPF2 (PPC2W2); [1]
  Array Heatmap signal, DPF2 (PPC2W2): 0.713
PHF21A; [1]
  Array Heatmap signal, PHF21A: 0.4944
CHD4 (PPCC); [1]
  Array Heatmap signal, CHD4 (PPCC): 0.5307
ING2; [1]
  Array Heatmap signal, ING2: 0.5955
RAG2; [1]
  Array Heatmap signal, RAG2: 0.2403
KDM7A; [1]
  Array Heatmap signal, KDM7A: 0.3495
ING4; [1]
  Array Heatmap signal, ING4: 0.4353
KDM5B (1); [1]
  Array Heatmap signal, KDM5B (1): 0.731
ING3; [1]
  Array Heatmap signal, ING3: 0.447
PHF2; [1]
  Array Heatmap signal, PHF2: 0.4223
KDM4C (TTP); [1]
  Array Heatmap signal, KDM4C (TTP): 0.5076
BPTF (PB); [1]
  Array Heatmap signal, BPTF (PB): 0.334
CHD5 (PCC); [1]
  Array Heatmap signal, CHD5 (PCC): 0.7562
KDM5B (3); [1]
  Array Heatmap signal, KDM5B (3): 0.4828
TRIM66 (PB); [1]
  Array Heatmap signal, TRIM66 (PB): 0.5483
